According to patent US20200155434A1, “SKIN CLEANSING COMPOSITION” (KAO CORPORATION, priority 2017, published 2020):

Assays:
[1] = at 25° C.; cited from earlier work
[2] = cited from earlier work
[3] = Detergency against keratotic plug during cleansing (penetration and collapse under digital microscope); design: species or system human; conditions: Table 1 samples; for Penetration of the sample into keratotic plugs (in words): contact with sample for 1 minute; for Collapse of keratotic plugs in contact with the sample (in words): assumption of cleansing
Description: Keratotic plugs in the nasal region were removed with “Biore Nose Pack (manufactured by Kao Corporation)”, the resulting keratotic plugs on the pack were gently taken out with tweezers.
The resulting keratotic plugs were placed on a slide glass and were covered with a cover glass, and 0.05 mL of a sample was dropwise added to an edge of the cover glass. Consequently, the sample entered into the gap between the slide glass and the cover glass by capillary phenomenon and was brought into contact with the keratotic plugs. The contact of the keratotic plugs and the sample was recorded with a digital microscope (VHX-5000, manufactured by Keyence Corporation, magnification: 150×), and the penetration of the sample into the keratotic plugs and the collapse state of the keratotic plugs were evaluated after one minute from the contact of the keratotic plugs with the sample. The results of each evaluation are shown in the columns “Keratotic plug detergency (penetration)” and “Keratotic plug detergency (during cleansing)” in Tables. The measurements were performed at 25° C.
The penetration was relatively evaluated by criteria with 11 ratings starting from the rating 1 “the sample hardly penetrated into the keratotic plug” to the rating 11 “the sample penetrated to the center of the keratotic plug”. The collapsibility by the detergency against keratotic plug was relatively evaluated by criteria with 11 ratings starting from the rating 1 “almost no change is observed in the external appearance of the keratotic plug” to the rating 11 “peeling or separation is observed in the area from the surface layer to the central portion of the keratotic plug (the initial appearance of the keratotic plug is not retained)”.

[4] = Detergency against keratotic plug after washing with water; design: species or system human; conditions: sample substituted with water; Table 1 samples
Description: After one minute from the contact of the keratotic plugs with the sample, Kimwipes (registered trademark) was brought into contact with an edge of the cover glass to remove the sample under the cover glass. Then, 0.05 mL of water was gradually dropwise added to an edge of the cover glass. The sample dropwise-added with water was recorded with the digital microscope, and the collapse state of the keratotic plugs was evaluated after one minute from the contact of the keratotic plugs with water according to the criteria for evaluating collapsibility of the keratotic plugs. The results of the evaluation are shown in the column “Keratotic plug detergency (during washing with water)” in Table. The measurements were performed at 25° C.

[5] = system: insoluble protein (seine protein); assay: Effect of suppressing protein aggregation; type: physicochemical; conditions: Table 1 sample
Description: Thirty milliliters of a sample and 0.06 g of an insoluble protein (seine protein) were placed in a 35-mL standard glass bottle, and the concentration of the insoluble protein was adjusted to 0.2 mass % (test sample). Separately, a standard sample was prepared by using water instead of the sample and adjusting the concentration of the insoluble protein to 0.2 mass %. Subsequently, the standard glass bottles were sufficiently shaken and stirred up and down (shake width: 15 cm, 20 times at a rate of 5 times for 3 seconds) in a thermostatic chamber of 25° C. and were left to stand for 3 minutes. The precipitation state of the insoluble protein was then visually verified, and the ratio of the amount of the precipitated standard sample to the amount of the precipitated test sample (the height of the precipitate in each standard glass bottle was measured as the precipitation amount), (precipitation amount of standard sample)/(precipitation amount of test sample), was calculated. A higher ratio indicates a higher effect of suppressing protein aggregation.

Row | Molecule | pKa [1] | Solubility in water (in words) [2] | Penetration of the sample into keratotic plugs (in words) [3] | Collapse of keratotic plugs during washing with water (in words) [4] | Collapse of keratotic plugs in contact with the sample (in words) [3] | Action on proteins (in words) [5]
1 | CC(C)(N)CO [AMP, 2-amino-2-methyl-1-propanol] | 9.72 | readily dissolved in water | – | – | – | –
2 | CC(N)(CO)CO [AMPD, 2-amino-2-methyl-1,3-propanediol] | 8.76 | – | – | – | – | –
3 | NC(CO)(CO)CO [Tris, 2-amino-2-hydroxymethyl-1,3-propanediol] | 8.03 | readily dissolved in water | penetrated into keratotic plugs | further accelerating the collapse of keratotic plugs | – | –
4 | O=P([O-])([O-])O.[Na+].[Na+] [disodium hydrogen phosphate] | – | – | hardly penetrated into keratotic plugs | collapse of keratotic plugs did not progress | collapse of the keratotic plugs did not progress | –
5 | O=C([O-])O.[Na+] [sodium hydrogen carbonate] | – | – | hardly penetrated into keratotic plugs | collapse of keratotic plugs did not progress | collapse of the keratotic plugs did not progress | –
6 | O=P([O-])([O-])[O-].[Na+].[Na+].[Na+] [trisodium phosphate] | – | – | hardly penetrated into keratotic plugs | collapse of keratotic plugs did not progress | collapse of the keratotic plugs did not progress | –
7 | sodium polyoxyethylene (2) lauryl ether sulfate [POE (2) sodium lauryl sulfate] | – | – | hardly penetrated into the keratotic plugs | – | collapse of the keratotic plugs did not progress | dissolve the proteins
